This note sets out measurements from US6825227B2, “Method for fighting against arthropods destructive of crops and compositions therefor” (priority 2000, dated 2004).

Common to all, as to type: in vivo
Test [1] concerns Nilaparvata lugens. The test is described as follows: Process Example C: insecticidal treatment against Nilaparvata lugens. From the text: (§1) The operating conditions were reproduced and adapted from those of Process Example A.
(§2) The active material(s) was(were) applied to the plots 25 days after planting out.
(§3) The rates of active materials applied and the results obtained 14 days after application are collated in Table 2.
This process example gives an illustration of a process according to the invention which is useful for insecticidal treatment against Nilaparvata lugens. The operating and measuring conditions are reproduced and adapted from Process Example B.
The application rates and the results are collated in Table 3.

The next test concerns rice crop. In words: Process Example D: yield of a rice crop with control of the insects which ravage it. The note with it: versus plot without treatment. How it is done:
This process example according to the invention gives an illustration of the improvement in the yield of a rice crop obtained concomitantly with the control of the insects which ravage this rice crop.
In this treatment Process Example according to the invention, the yield of the crop was evaluated, along with the improvement in this yield obtained by carrying out the said process according to the invention simultaneously using fipronil as compound (A) and cypermethrin as compound (B).
(§4) The operating and measuring conditions are reproduced and adapted from Process Example B.
The application rates and the results are collated in Table 4.

Test [2] has as its system Nilaparvata lugens. The test is described as follows: Process Example F: variation in number of Nilaparvata lugens after treatment.
From the text: (§5) This process example gives an illustration of a process according to the invention which is useful for insecticidal treatment against Nilaparvata lugens.
as §4
The active materials used, their application rates and the results obtained are collated in Table 6.

For test [3], the system named is Nephotettix apicalis. In words: Process Example G: variation in number of Nephotettix apicalis after treatment. From the text: This process example gives an illustration of a process according to the invention which is useful for insecticidal treatment against Nephotettix apicalis. The operating and measuring conditions are reproduced and adapted from Process Example B.
The active materials used, their application rates and the results obtained are collated in Table 7.

For test [4], the system named is Tryporyza incertulas. In words: Process Example A: treatment of rice plots against yellow rice stem borer, count of dead plant cores. The note with it: applied 7 days after planting out. How it is done: The treatment process carried out was a treatment process against yellow rice stem borer or Tryporyza incertulas during the infestation of a rice crop. For the comparison of the process according to the invention with known insecticidal treatment processes, four plots were prepared in a similar manner.
The first is left without treatment, the second is treated with fipronil as active material, the third with deltamethrin and the fourth with fipronil and deltamethrin in accordance with the process according to the invention.
After sowing and then growing, the rice seedlings are transplanted at the three- to four-leaf stage.
The various active materials were then applied 7 days after planting out.
The formulation used in this process according to the invention is identical to that of Composition Example A.
The application rates and the results obtained are collated in Table 1.
The measurement was carried out by counting the number of rice plant cores that were dead due to attack by the damaging insects treated, i.e. Tryporyza incertulas; thus, the smallest number is obtained after carrying out the process according to the invention, while the untreated plots or plots treated in a known manner give substantially larger numbers.

The subject of test [5] is Nephotettix apicalis. In words: Process Example B: insecticidal treatment of a rice crop against leafhoppers. The note with it: applied 25 days after planting out, 14 days after application. How it is done:
This process example gives an illustration of a process according to the invention which is useful for insecticidal treatment against leafhoppers and in particular against Nephotettix apicalis.
This process according to the invention was carried out for the treatment of a rice crop.
as §1
The active materials used were fipronil and deltamethrin in a formulation in the form of granules according to Composition Example A.
as §2, §3

For test [6], the system named is Nilaparvata lugens. In words: Process Example E: variation in number of Nilaparvata lugens after treatment.
From the text: as §5, §4
The active materials used, their application rates and the results obtained are collated in Table 5.

The subject of the next test is Scotinophara lurida. The test is described as follows: Process Example K: treatment of a rice crop against Scotinophara lurida. The note with it: fipronil 25 g/ha.
From the text: The treatment process used was a process of treatment against Scotinophara lurida during the infestation of a rice crop.
as §4
The active materials used, their application rates and the results obtained are collated in Table 11.

Test [7] has as its system Nilaparvata lugens. The test is described as follows: Process Example I: variation in number of Nilaparvata lugens after treatment. The note with it: fipronil 25 g/ha.
From the text: as §5, §4
The active materials used, their application rates and the results obtained are collated in Table 9.

The subject of test [8] is Nilaparvata lugens. The test is described as follows: Process Example H: variation in number of Nilaparvata lugens after treatment. The note with it: fipronil 25 g/ha.
From the text: as §5, §4
The active materials used, their application rates and the results obtained are collated in Table 8.

The subject of test [9] is Tryporyza incertulas. In words: Process Example J: treatment of a rice crop against yellow rice stem borer, variation in dead plant cores. The note with it: fipronil 25 g/ha. As to the method: The treatment process used was a process of treatment against yellow rice stem borer or Tryporyza incertulas during the infestation of a rice crop.
as §4
The active materials used, their application rates and the results obtained are collated in Table 10.
The measurement was carried out by counting the number of rice plant cores that were dead due to attack by the damaging insects treated, i.e. Tryporyza incertulas; thus, the greatest degree of reduction is obtained after carrying out the process according to the invention, whereas the untreated plots or plots treated in a known manner give substantially more mediocre degrees.

Regarding `CC1(C)C(C=C(Cl)Cl)C1C(=O)OC(C#N)c1cccc(Oc2ccccc2)c1` [cypermethrin, (R,S)-α-cyano-3-phenoxybenzyl (1RS,3RS;1RS,3SR)-3-(2,2-dichlorovinyl)-2,2-dimethylcyclopropanecarboxylate], in the test with Nilaparvata lugens [1] (cypermethrin 12.5 g/ha), the Insecticidal efficacy came to 21%. Also, the “Improvement in the yield of the plot (%)” value in the test with rice crop (cypermethrin 12.5 g/ha) came to 78%. Besides, in the test on Nilaparvata lugens [2] (cypermethrin 12.5 g/ha), the “Degree of variation in the number of damaging insects 3 days after application” value is listed as −27% and the “Degree of variation in the number of damaging insects 7 days after application” value is on record as “+13%”.

For `CC1(C)[C@H](C(=O)O[C@H](C#N)c2cccc(Oc3ccccc3)c2)[C@@H]1C=C(Br)Br` [deltamethrin, (S)-α-cyano-3-phenoxybenzyl (1R,3R)-3-(2,2-dibromovinyl)-2,2-dimethylcyclopropanecarboxylate], in the test on Nephotettix apicalis [3] (deltamethrin 6 g/ha), the “Degree of variation in the number of damaging insects 1 day after application” value is on record as −13%, the “Degree of variation in the number of damaging insects 3 days after application” value is on record as “+25%” and the “Degree of variation in the number of damaging insects 7 days after application” value was “+75%”. In addition, the “Proportion of dead plant cores found” value in the test on Tryporyza incertulas [4] (deltamethrin 6 g/ha) was 66%. Besides, in the test on Nephotettix apicalis [5] (deltamethrin 6 g/ha), the Insecticidal efficacy was determined as 6%. Also, in the test with Nilaparvata lugens [6] (deltamethrin 6 g/ha), the “Degree of variation in the number of damaging insects 3 days after application” value is reported as “+27%” and the “Degree of variation in the number of damaging insects 7 days after application” value was 0%.

Regarding `N#Cc1nn(-c2c(Cl)cc(C(F)(F)F)cc2Cl)c(N)c1[S+]([O-])C(F)(F)F` (stereo not shown) [fipronil, 5-amino-3-cyano-1-(2,6-dichloro-4-trifluoromethylphenyl)-4-trifluoromethylsulphinylpyrazole], the “Degree of variation in the number of damaging insects 1 day after treatment” value in the test on Scotinophara lurida (1 day) is given as −43%. The “Degree of variation in the number of damaging insects 3 days after treatment” value with Scotinophara lurida (3 days) is on record as −67%. Also, the “Degree of variation in the number of damaging insects 14 days after treatment” value in the test with Scotinophara lurida (14 days) is −45%. Moreover, the “Degree of variation in the number of damaging insects 7 days after application” value in the test on Nilaparvata lugens [7] is on record as “+19%”; in the test with Nilaparvata lugens [8] (7 days), −16%; in the test with Nephotettix apicalis [3] (fipronil 25 g/ha), “+183%”; in the test with Nilaparvata lugens [2] (fipronil 25 g/ha) it was “+11%”; with Nilaparvata lugens [6] (fipronil 25 g/ha), “+11%”. Further, the “Degree of variation in the number of damaging insects 1 day after application” value in the test with Nilaparvata lugens [8] (1 day) is listed as −15%; with Nephotettix apicalis [3] (fipronil 25 g/ha), “+50%”. The “Degree of variation in the number of damaging insects 3 days after application” value in the test with Nilaparvata lugens [8] (3 days) is −8%; in the test with Nephotettix apicalis [3] (fipronil 25 g/ha), “+83%”; in the test with Nilaparvata lugens [2] (fipronil 25 g/ha), “+33%”; with Nilaparvata lugens [6] (fipronil 25 g/ha), “+33%”. In the test on Nilaparvata lugens [8] (14 days), the “Degree of variation in the number of damaging insects 14 days after application” value is given as “+40%”. Also, the Insecticidal efficacy in the test on Nilaparvata lugens [1] (fipronil 10 g/ha) is given as 78%; in the test on Nephotettix apicalis [5] (fipronil 25 g/ha), 16%. For the same compound, the “Improvement in the yield of the plot (%)” value with rice crop (fipronil 10 g/ha) is recorded as 188%. For the same compound, in the test on Tryporyza incertulas [9], the “Degree of variation in the number of dead plant cores” value is on record as −35%. The “Proportion of dead plant cores found” value in the test with Tryporyza incertulas [4] (fipronil 10 g/ha) amounted to 56%.
